In publication PMC9851200, “Multiparameter phenotypic screening for endogenous TFEB and TFE3 translocation identifies novel chemical series modulating lysosome function” (Autophagy, 2022):
pKd: −log10 of the molar value. Where two headings read alike, the source gives them in different places.

Columns and labels:
[1] = molecular target: T1, cellular kinases of SH-SY5Y cells (Homo sapiens, UniProt Q13233); assay: biochemical; type: binding; conditions: 2µM; SH-SY5Y cells; Labeling Site Lys2; DVKGANLLIDSTGQR; read-out: KiNativ in-cell binding, % Inhibition, MAP3K1
T1 construct: endogenous in cells; host or cells: SH-SY5Y
Description: (§1) As KINOMEscan is an in vitro assay, and as different cell types have variable kinase expression profiles we sought to determine the kinase binding profile in our SH-SY5Y TFEB-relocalization cell model. […] Bound kinases were pulled down and analyzed by mass spectrometry to determine the in situ kinase binding profile for each compound.

[2] = molecular target: cellular kinases of SH-SY5Y cells (Homo sapiens, UniProt Q13557); assay: biochemical; type: binding; conditions: 2µM; SH-SY5Y cells; Labeling Site Lys1; IPTGQEYAAKIINTKK; read-out: KiNativ in-cell binding, % Inhibition, CaMK2d
Description: as §1

[3] = molecular target: cellular kinases of SH-SY5Y cells (Homo sapiens, UniProt P09769); assay: biochemical; type: binding; conditions: 2µM; SH-SY5Y cells; Labeling Site Activation Loop; LIKDDEYNPCQGSKFPIK; read-out: KiNativ in-cell binding, % Inhibition, FGR
Description: as §1

[4] = molecular target: T2, cellular kinases of SH-SY5Y cells (Homo sapiens, UniProt P23743); assay: biochemical; type: binding
T2 construct: endogenous in cells; host or cells: SH-SY5Y
Description: as §1

[5] = molecular target: T3, cellular kinases of SH-SY5Y cells (Homo sapiens, UniProt P48426); assay: biochemical; type: binding; conditions: 2µM; SH-SY5Y cells; Labeling Site ATP; AKELPTLKDNDFINEGQK; read-out: KiNativ in-cell binding, % Inhibition, PIP4K2A
T3 construct: endogenous in cells; host or cells: SH-SY5Y
Description: as §1

[6] = molecular target: T4, cellular kinases of SH-SY5Y cells (Homo sapiens, UniProt Q07912); assay: biochemical; type: binding; conditions: 2µM, SH-SY5Y cells, read-out: KiNativ in-cell binding, % Inhibition, TNK2/ACK
T4 construct: endogenous in cells; host or cells: SH-SY5Y
Description: as §1

[7] = molecular target: T5, cellular kinases of SH-SY5Y cells (Homo sapiens, UniProt Q13188); assay: biochemical; type: binding; conditions: 2µM; SH-SY5Y cells; Labeling Site Lys1; ESGQVVAIKQVPVESDLQEIIK; read-out: KiNativ in-cell binding, % Inhibition, STK3/MST2
T5 construct: endogenous in cells; host or cells: SH-SY5Y
Description: as §1

[8] = molecular target: T6, cellular kinases of SH-SY5Y cells (Homo sapiens, UniProt Q16644); assay: biochemical; type: binding; conditions: 2µM; SH-SY5Y cells; Labeling Site ATP Loop; QVLGLGVNGKVLECFHR; read-out: KiNativ in-cell binding, % Inhibition, MAPKAPK3
T6 construct: endogenous in cells; host or cells: SH-SY5Y
Description: as §1

[9] = molecular target: T7, cellular kinases of SH-SY5Y cells (Homo sapiens, UniProt O14733); assay: biochemical; type: binding; conditions: 2µM; SH-SY5Y cells; labeling site Lys2; peptide DVKPSNILLDER
T7 construct: endogenous in cells; host or cells: SH-SY5Y
Description: as §1

[10] = molecular target: T8, cellular kinases of SH-SY5Y cells (Homo sapiens, UniProt Q52WX2); assay: biochemical; type: binding; conditions: 2µM; SH-SY5Y cells; Labeling Site Lys2; DIKPENVLLFDR; read-out: KiNativ in-cell binding, % Inhibition, SBK1/SBK
T8 construct: endogenous in cells; host or cells: SH-SY5Y
Description: as §1

[11] = molecular target: T9, cellular kinases of SH-SY5Y cells (Homo sapiens, UniProt Q9H2G2); assay: biochemical; type: binding; conditions: 2µM, SH-SY5Y cells
T9 construct: endogenous in cells; host or cells: SH-SY5Y
Description: as §1

[12] = molecular target: T10, PRKD1 (Homo sapiens, UniProt Q15139); assay: PRKD1 binding KD (Table S3); conditions: relation sign
T10 sequence (Q15139 1-912): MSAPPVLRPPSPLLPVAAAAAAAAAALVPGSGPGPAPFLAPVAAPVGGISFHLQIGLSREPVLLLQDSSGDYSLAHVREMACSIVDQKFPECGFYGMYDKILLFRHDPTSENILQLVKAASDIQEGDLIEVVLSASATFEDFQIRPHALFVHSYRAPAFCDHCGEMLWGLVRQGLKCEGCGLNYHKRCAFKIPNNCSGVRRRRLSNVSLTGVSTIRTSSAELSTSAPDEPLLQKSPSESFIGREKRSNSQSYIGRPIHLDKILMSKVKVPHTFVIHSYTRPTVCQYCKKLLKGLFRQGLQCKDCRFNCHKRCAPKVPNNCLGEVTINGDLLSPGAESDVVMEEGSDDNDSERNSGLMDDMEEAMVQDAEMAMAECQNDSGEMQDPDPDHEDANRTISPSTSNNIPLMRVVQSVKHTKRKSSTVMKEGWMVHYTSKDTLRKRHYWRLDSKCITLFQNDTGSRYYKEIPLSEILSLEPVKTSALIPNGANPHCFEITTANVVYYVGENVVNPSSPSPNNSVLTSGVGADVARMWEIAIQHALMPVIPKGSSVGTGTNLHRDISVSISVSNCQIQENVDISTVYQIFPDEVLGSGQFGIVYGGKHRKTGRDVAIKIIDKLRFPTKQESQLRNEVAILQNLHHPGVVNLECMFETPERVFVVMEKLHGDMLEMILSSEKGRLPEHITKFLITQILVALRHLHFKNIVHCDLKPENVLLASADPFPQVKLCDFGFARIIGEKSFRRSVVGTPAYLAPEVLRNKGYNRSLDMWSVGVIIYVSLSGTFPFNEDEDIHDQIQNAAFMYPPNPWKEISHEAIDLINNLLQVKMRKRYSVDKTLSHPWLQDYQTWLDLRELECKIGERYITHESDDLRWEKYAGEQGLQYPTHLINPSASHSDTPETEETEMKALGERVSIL
Description: Supplement KAUP_A_2095834_SM5251.zip/Supplementary Tables R7.xlsx, sheet "Table S3 - Analogues"

[13] = molecular target: kinases (KINOMEscan panel) (Homo sapiens, UniProt O75582); type: binding; conditions: NEW KINOMEscan
[14] = molecular target: kinases (KINOMEscan panel) (Homo sapiens, UniProt O00506); type: binding
[15] = molecular target: kinases (KINOMEscan panel) (Homo sapiens, UniProt P36507); type: binding
[16] = molecular target: kinases (KINOMEscan panel) (Homo sapiens, UniProt Q9H2G2); type: binding
[17] = molecular target: kinases (KINOMEscan panel) (Homo sapiens, UniProt Q9P289); type: binding

Sequence of kinases (KINOMEscan panel) (Homo sapiens, UniProt O75582) (O75582 whole entry): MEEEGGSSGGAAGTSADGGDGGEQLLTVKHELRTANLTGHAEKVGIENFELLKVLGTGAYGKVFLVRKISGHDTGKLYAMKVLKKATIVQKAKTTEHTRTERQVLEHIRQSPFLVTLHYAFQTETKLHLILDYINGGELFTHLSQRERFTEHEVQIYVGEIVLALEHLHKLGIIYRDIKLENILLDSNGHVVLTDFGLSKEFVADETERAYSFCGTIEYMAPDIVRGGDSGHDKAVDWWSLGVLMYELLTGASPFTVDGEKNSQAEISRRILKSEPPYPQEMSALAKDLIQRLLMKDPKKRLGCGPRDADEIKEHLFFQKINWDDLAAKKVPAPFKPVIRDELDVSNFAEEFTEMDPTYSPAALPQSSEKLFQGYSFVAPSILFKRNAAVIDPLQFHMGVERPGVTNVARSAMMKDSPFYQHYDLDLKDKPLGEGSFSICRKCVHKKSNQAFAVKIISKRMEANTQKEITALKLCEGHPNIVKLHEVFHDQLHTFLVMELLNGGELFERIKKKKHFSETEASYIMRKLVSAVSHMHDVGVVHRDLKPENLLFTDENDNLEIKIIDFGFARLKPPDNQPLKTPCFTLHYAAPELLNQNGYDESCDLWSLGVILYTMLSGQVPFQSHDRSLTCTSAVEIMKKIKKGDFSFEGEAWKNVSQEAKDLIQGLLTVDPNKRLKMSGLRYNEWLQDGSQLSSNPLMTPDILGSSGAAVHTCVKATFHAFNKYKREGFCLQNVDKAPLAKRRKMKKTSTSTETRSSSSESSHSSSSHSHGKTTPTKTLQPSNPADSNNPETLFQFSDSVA
T4 sequence (Q07912 whole entry): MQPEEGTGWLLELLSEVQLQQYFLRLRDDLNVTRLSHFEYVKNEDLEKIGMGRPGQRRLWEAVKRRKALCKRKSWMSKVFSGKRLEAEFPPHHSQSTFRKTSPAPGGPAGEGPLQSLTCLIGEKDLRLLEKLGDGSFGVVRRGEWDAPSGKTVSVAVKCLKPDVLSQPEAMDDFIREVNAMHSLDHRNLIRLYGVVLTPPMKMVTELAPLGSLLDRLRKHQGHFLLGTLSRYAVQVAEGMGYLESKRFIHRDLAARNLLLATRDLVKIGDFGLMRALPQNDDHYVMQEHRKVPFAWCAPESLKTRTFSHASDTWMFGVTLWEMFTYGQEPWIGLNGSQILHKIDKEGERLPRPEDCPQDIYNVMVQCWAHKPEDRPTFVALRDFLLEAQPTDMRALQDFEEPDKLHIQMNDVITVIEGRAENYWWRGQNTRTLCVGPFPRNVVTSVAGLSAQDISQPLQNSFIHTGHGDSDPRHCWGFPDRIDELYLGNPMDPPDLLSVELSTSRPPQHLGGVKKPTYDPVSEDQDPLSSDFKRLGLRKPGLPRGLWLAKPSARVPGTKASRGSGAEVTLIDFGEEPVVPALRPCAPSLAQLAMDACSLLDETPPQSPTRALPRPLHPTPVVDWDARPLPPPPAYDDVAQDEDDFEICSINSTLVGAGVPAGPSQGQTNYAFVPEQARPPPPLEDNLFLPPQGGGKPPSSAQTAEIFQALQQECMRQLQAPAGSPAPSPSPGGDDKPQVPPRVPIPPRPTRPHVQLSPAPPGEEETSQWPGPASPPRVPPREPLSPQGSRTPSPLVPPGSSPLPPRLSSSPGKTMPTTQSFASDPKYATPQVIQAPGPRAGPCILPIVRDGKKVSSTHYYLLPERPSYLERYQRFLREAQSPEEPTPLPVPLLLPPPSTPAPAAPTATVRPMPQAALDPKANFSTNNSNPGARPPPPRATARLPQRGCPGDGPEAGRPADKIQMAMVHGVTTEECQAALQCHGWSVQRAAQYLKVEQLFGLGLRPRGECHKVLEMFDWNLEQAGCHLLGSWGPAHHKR
T9 sequence (Q9H2G2 whole entry): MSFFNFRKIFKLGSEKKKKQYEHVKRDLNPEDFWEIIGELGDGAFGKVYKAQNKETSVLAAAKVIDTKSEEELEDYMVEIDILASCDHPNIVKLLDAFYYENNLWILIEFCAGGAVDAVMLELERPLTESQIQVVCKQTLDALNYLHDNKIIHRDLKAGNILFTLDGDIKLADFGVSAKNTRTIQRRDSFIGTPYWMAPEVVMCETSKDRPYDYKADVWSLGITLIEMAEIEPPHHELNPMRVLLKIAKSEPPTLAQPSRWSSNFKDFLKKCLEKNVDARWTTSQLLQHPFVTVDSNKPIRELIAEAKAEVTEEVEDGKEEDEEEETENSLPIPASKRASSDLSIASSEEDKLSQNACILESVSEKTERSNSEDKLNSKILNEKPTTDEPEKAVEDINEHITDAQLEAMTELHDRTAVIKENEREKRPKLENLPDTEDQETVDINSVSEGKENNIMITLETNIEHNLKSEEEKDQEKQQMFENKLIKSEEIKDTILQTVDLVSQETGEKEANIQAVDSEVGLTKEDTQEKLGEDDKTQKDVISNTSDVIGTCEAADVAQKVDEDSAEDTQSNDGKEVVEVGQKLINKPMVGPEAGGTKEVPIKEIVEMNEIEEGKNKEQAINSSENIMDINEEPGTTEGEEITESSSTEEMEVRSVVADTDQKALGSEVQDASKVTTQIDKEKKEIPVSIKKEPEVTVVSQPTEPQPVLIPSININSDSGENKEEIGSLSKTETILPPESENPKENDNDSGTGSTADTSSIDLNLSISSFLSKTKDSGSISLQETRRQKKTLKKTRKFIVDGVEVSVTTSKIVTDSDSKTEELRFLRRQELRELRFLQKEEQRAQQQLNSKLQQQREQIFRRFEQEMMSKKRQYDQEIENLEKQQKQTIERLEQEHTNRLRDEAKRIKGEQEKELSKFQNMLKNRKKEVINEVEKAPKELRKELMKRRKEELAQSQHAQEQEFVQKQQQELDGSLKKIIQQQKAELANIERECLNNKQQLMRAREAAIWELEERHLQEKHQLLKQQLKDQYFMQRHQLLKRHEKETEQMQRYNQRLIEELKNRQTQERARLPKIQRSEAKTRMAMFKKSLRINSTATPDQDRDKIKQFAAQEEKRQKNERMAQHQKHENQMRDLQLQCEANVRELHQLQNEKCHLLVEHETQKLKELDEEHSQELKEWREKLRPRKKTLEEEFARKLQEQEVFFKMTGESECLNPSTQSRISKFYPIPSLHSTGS
Sequence of kinases (KINOMEscan panel) (Homo sapiens, UniProt O00506) (O00506 whole entry): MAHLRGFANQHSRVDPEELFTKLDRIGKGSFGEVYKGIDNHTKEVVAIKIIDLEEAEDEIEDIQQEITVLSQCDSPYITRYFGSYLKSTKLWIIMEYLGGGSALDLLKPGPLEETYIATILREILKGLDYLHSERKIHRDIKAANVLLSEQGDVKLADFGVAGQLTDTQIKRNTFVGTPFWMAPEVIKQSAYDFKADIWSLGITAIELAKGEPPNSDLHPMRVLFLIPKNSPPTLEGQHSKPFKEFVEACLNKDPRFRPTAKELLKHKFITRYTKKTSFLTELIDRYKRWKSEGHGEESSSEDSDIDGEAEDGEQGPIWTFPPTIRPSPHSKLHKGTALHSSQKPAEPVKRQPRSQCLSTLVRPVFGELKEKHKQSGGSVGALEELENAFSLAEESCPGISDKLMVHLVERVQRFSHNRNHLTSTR
T5 sequence (Q13188 whole entry): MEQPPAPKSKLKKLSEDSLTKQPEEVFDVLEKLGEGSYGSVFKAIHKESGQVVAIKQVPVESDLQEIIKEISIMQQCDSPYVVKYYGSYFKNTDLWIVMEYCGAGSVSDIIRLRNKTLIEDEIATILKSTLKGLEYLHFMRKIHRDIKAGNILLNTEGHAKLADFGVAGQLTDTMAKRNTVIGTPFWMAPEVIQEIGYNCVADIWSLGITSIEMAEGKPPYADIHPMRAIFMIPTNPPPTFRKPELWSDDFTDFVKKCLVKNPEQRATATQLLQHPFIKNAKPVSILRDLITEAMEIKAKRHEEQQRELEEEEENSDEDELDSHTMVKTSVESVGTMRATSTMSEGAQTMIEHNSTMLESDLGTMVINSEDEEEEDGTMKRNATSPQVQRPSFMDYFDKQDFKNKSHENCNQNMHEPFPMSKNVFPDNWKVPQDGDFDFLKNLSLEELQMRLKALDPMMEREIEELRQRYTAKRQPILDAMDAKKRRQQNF
T2 sequence (P23743 whole entry): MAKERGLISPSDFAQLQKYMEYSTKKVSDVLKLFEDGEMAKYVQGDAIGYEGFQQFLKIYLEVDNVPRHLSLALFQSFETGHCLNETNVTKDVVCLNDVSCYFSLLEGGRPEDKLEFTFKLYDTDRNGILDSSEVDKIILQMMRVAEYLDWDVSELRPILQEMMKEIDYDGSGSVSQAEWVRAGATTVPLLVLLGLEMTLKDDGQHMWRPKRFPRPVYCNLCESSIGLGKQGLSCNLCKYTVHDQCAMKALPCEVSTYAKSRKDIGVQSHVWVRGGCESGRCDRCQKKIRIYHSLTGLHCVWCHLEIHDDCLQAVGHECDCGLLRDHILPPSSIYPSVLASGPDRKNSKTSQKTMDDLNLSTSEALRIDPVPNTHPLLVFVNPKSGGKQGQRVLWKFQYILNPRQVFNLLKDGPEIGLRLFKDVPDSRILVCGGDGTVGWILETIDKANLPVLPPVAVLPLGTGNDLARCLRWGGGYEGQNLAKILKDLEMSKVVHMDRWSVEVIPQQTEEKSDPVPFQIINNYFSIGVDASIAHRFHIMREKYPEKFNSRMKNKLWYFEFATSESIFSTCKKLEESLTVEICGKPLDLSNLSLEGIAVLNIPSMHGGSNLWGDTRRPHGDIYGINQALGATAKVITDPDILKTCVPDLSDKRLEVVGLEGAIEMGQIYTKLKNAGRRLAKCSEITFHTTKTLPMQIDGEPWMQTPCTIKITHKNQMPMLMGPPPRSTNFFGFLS
Sequence of kinases (KINOMEscan panel) (Homo sapiens, UniProt Q9H2G2) (Q9H2G2 whole entry): as the sequence (Q9H2G2 whole entry) above

Question: Which results are given for `Cc1cccc(-c2nc(Nc3ccc4ncsc4c3)c3ccccc3n2)n1` [NK140]?
Answer: inhibition at 2 µM [1]: -7.7%; inhibition at 2 µM [2]: 30.5%; inhibition at 2 µM [3]: 20.4%; KiNativ in-cell binding, DGKA [4]: -19.6; inhibition at 2 µM [5]: 29.7%; inhibition at 2 µM ([6]; Labeling Site Activation Loop, KVPFAWCAPESLK): -3.4%; inhibition at 2 µM ([6]; Labeling Site Lys1, TVSVAVKCLKPDVLSQPEAMDDFIR): 12.9%; inhibition at 2 µM [7]: 31.6%; inhibition at 2 µM [8]: 16.2%; KiNativ in-cell binding, MAP2K7 [9]: -84.9; inhibition at 2 µM [10]: 3.5%; inhibition at 2 µM ([11]; Labeling Site Lys1, AQNKETSVLAAAKVIDTK, read-out: KiNativ in-cell binding, % Inhibition, SLK (SLK OR FYN/SLK)): 16.4%; inhibition at 2 µM ([11]; Labeling Site Lys2, DLKAGNILFTLDGDIK, read-out: KiNativ in-cell binding, % Inhibition, SLK): 26.7%

Question: How did the pKd [12] turn out when `Cc1cccc(-c2nc(Nc3ccncc3)c3ccccc3n2)n1` [NK215] was run?
Answer: 7.89

Question: With `Cc1cccc(-c2nc(N(C)c3ccc4ncsc4c3)c3ccccc3n2)n1` [NK-161] as the compound, how does the “KINOMEscan RPS6KA5(Kin.Dom.1-N-terminal)” value [13] read?
Answer: 21

Question: And the “KINOMEscan RPS6KA5(Kin.Dom.2-C-terminal)” value ([13]; kinase RPS6KA5(Kin.Dom.2-C-terminal))?
Answer: 0

Question: And the “KINOMEscan STK25/YSK1” value [14]?
Answer: 2

Question: What about the “KINOMEscan MAP2K2/MEK2” value [15] of the same compound?
Answer: 27

Question: And the “KINOMEscan FYN/SLK” value [16]?
Answer: 4

Question: And the “KINOMEscan STK26/MST4” value [17]?
Answer: 5
